In patent US7632833B2, “Mitotic kinesin inhibitors” (Merck & Co., Inc., priority 2004, dated 2009):
Where two headings read alike, the source gives them in different places.

Target: T1, human poly-histidine tagged KSP motor domain (KSP(367H)) (Homo sapiens, UniProt P52732)
T1 construct: were used to amplify the motor domain and the neck linker region; made in house; host or cells: E. coli BL21 (DE3), vector pRSETa
T1 sequence (P52732 18-359 limits assumed): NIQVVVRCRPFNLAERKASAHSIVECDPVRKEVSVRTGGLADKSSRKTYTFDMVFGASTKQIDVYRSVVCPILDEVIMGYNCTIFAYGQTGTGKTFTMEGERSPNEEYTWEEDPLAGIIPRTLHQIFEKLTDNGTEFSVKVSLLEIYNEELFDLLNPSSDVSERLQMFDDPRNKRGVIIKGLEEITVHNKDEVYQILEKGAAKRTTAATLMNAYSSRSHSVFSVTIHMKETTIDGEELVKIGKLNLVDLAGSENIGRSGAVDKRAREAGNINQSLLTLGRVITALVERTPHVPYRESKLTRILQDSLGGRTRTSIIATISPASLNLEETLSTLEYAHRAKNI
Test: Kinesin ATPase In Vitro Assay
Format: biochemical
Protocol: I. Kinesin ATPase In Vitro Assay
The N-terminal primer 5′-[…] (SEQ. ID. NO.: 1) and the C-terminal primer 5′-[…] […] (SEQ. ID. NO.: 2)
were used to amplify the motor domain and the neck linker region. The PCR products were digested with AseI and XhoI, ligated into the NdeI/XhoI digestion product of pRSETa (Invitrogen) and transformed into E. coli BL21 (DE3).
Cells were grown at 37° C. to an OD600 of 0.5. After cooling the culture to room temperature expression of KSP was induced with 100 μM IPTG and incubation was continued overnight. Cells were pelleted by centrifugation and washed once with ice-cold PBS. Pellets were flash-frozen and stored −80° C.
Protein Purification: Cell pellets were thawed on ice and resuspended in lysis buffer (50 mM K-HEPES, pH 8.0, 250 mM KCl, 0.1% Tween, 10 mM imidazole, 0.5 mM Mg-ATP, 1 mM PMSF, 2 mM benzimidine, 1× complete protease inhibitor cocktail (Roche)). Cell suspensions were incubated with 1 mg/ml lysozyme and 5 mM β-mercaptoethanol on ice for 10 minutes, followed by sonication (3×30 sec). All subsequent procedures were performed at 4° C. Lysates were centrifuged at 40,000×g for 40 minutes. Supernatants were diluted and loaded onto an SP Sepharose column (Pharmacia, 5 ml cartridge) in buffer A (50 mM K-HEPES, pH 6.8, 1 mM MgCl2, 1 mM EGTA, 10 μM Mg-ATP, 1 mM DTT) and eluted with a 0 to 750 mM KCl gradient in buffer A. Fractions containing KSP were pooled and incubated with Ni-NTA resin (Qiagen) for one hour. The resin was washed three times with buffer B (Lysis buffer minus PMSF and protease inhibitor cocktail), followed by three 15-minute incubations and washes with buffer B. Finally, the resin was incubated and washed for 15 minutes three times with buffer C (same as buffer B except for pH 6.0) and poured into a column. KSP was eluted with elution buffer (identical to buffer B except for 150 mM KCl and 250 mM imidazole). KSP-containing fractions were pooled, made 10% in sucrose, and stored at −80° C.
Microtubules are prepared from tubulin isolated from bovine brain. Purified tubulin (>97% MAP-free) at 1 mg/ml is polymerized at 37° C. in the presence of 10 μM paclitaxel, 1 mM DTT, 1 mM GTP in BRB80 buffer (80 mM K-PIPES, 1 mM EGTA, 1 mM MgCl2 at pH 6.8). The resulting microtubules are separated from non-polymerized tubulin by ultracentrifugation and removal of the supernatant. The pellet, containing the microtubules, is gently resuspended in 10 μM paclitaxel, 1 mM DTT, 50 μg/ml ampicillin, and 5 μg/ml chloramphenicol in BRB80.
The kinesin motor domain is incubated with microtubules, 1 mM ATP (1:1 MgCl2: Na-ATP), and compound at 23° C. in buffer containing 80 mM K-HEPES (pH 7.0), […], 1 mM DTT, 1 mM MgCl2, and 50 mM KCl. The reaction is terminated by a 2-10 fold dilution with a final buffer composition of 80 mM HEPES and 50 mM EDTA. […] The reaction is incubated for 10 minutes at 23° C., and the absorbance of the phospho-molybdate complex is measured at 540 nm.

[1] = (3R,4R) enantiomeric form tested, kinesin motor domain with microtubules, 1 mM ATP, 23° C., free phosphate by quinaldine red/ammonium molybdate, read-out: IC50

SMILES | IC50 [1] [µM] | IC50 [µM]
CC(=O)C1=NN2c3cc(F)ccc3OC[C@H]2[C@@]1(CCCN1CCN(C(=O)OC(C)(C)C)CC1)c1ccccc1 [Compound 4-24, tert-butyl 4-{3-[(3R,4R)-2-acetyl-8-fluoro-3-phenyl-3a,4-dihydro-3H-pyrazolo[5,1-c][1,4]benzoxazin-3-yl]propyl}piperazine-1-carboxylate] | ≤ 30 | –
CC(=O)C1=NN2c3cc(F)ccc3OC[C@H]2[C@@]1(CCCN1CCN(C(=O)C(C)(C)C)CC1)c1ccccc1 [Compound 4-30, 1-((3R,4R)-3-{3-[4-(2,2-dimethylpropanoyl)piperazin-1-yl]propyl}-8-fluoro-3-phenyl-3a,4-dihydro-3H-pyrazolo[5,1-c][1,4]benzoxazin-2-yl)ethanone] | ≤ 30 | –
CC(=O)C1=NN2c3cc(F)ccc3OC[C@H]2[C@@]1(CCCN1CCN(C(=O)N(C)C)CC1)c1ccccc1 [Compound 4-29, 4-{3-[(3R,4R)-2-acetyl-8-fluoro-3-phenyl-3a,4-dihydro-3H-pyrazolo[5,1-c][1,4]benzoxazin-3-yl]propyl}-N,N-dimethylpiperazine-1-carboxamide] | ≤ 30 | –
CON(C)C(=O)C1=NN2c3cc(F)ccc3OC[C@H]2[C@H]1c1ccccc1 [Compound 1-7, (3R,4R)-8-Fluoro-N-methoxy-N-methyl-3-phenyl-3a,4-dihydro-3H-pyrazolo[5,1-c][1,4]benzoxazine-2-carboxamide] | ≤ 30 | –
CC(=O)C1=NN2c3cc(F)ccc3OC[C@H]2[C@@]1(CCCN1CCN(C(=O)c2ccno2)CC1)c1ccccc1 [Compound 4-34, 1-((3R,4R)-8-fluoro-3-{3-[4-(isoxazol-5-ylcarbonyl)piperazin-1-yl]propyl}-3-phenyl-3a,4-dihydro-3H-pyrazolo[5,1-c][1,4]benzoxazin-2-yl)ethanone] | ≤ 30 | –

Continued, values first:

IC50 [1] [µM] | IC50 [µM] | SMILES
≤ 30 | – | CC(=O)C1=NN2c3cc(C)ccc3OCC2[C@@]1(CCCN1CC2C[C@@H]1CO2)c1ccccc1 (mixture of isomers) [Compound 4-20, (3R,4R) 1-{8-methyl-3-[3-(2-oxa-5-azabicyclo[2.2.1]hept-5-yl)propyl]-3-phenyl-3a,4-dihydro-3H-pyrazolo[5,1-c][1,4]benzoxazin-2-yl}ethanone]
– | ≤ 30 | CC(=O)C1=NN2c3cc(F)ccc3OC[C@H]2[C@@]1(CCCN1CCN(C(C)=O)CC1)c1ccccc1 [Compound 5-10, 1-{(3R,4R)-3-[3-(4-acetylpiperazin-1-yl)propyl]-8-fluoro-3-phenyl-3a,4-dihydro-3H-pyrazolo[5,1-c][1,4]benzoxazin-2-yl}ethanone]
– | ≤ 30 | CC(=O)C1=NN2c3cc(F)ccc3OCC2C1(CCCN(C)C)c1ccccc1 [Compound 4-13, (3R,4R) 1-{3-[3-(dimethylamino)propyl]-8-fluoro-3-phenyl-3a,4-dihydro-3H-pyrazolo[5,1-c][1,4]benzoxazin-2-yl}ethanone]
– | ≤ 30 | CC(=O)C1=NN2c3cc(C)ccc3OCC2C1(CCCN1CCOCC1)c1ccccc1 [Compound 4-19, (3R,4R) 1-[8-methyl-3-(3-morpholin-4-ylpropyl)-3-phenyl-3a,4-dihydro-3H-pyrazolo[5,1-c][1,4]benzoxazin-2-yl]ethanone]
– | ≤ 30 | CC(=O)C1=NN2c3cc(F)ccc3OCC2C1(CCCN1CCNC(=O)CC1)c1ccccc1 [Compound 4-21, 1-{3-[(3R,4R)-2-acetyl-8-fluoro-3-phenyl-3a,4-dihydro-3H-pyrazolo[5,1-c][1,4]benzoxazin-3-yl]propyl}-1,4-diazepan-5-one]
≤ 30 | – | CC(=O)C1=NN2c3cc(F)ccc3OC[C@H]2[C@@]1(CCCN1CCNC(=O)C1)c1ccccc1 [Compound 4-36, 4-{3-[(3R,4R)-2-acetyl-8-fluoro-3-phenyl-3a,4-dihydro-3H-pyrazolo[5,1-c][1,4]benzoxazin-3-yl]propyl}piperazin-2-one]
– | ≤ 30 | CC(=O)C1=NN2c3cc(F)ccc3OC[C@H]2[C@@]1(CCCO)c1ccccc1 [Compound 4-12, (3R,4R) 1-[8-fluoro-3-(3-hydroxypropyl)-3-phenyl-3a,4-dihydro-3H-pyrazolo[5,1-c][1,4]benzoxazin-2-yl]ethanone]
